Data taken from ChEMBL document CHEMBL3352227, “Synthesis, antimycobacterial and antibacterial evaluation of l-[(1R, 2S)-2-fluorocyclopropyl]fluoroquinolone derivatives containing an oxime functional moiety” (Eur J Med Chem, 2014).
Converted amounts (≈) assume the structure as drawn.

Experiments:
[1] = tested on: Mycobacterium tuberculosis; assay: Antimycobacterial activity against Mycobacterium tuberculosis H37Rv ATCC 27294 by MABA method; type: functional
Escherichia coli [2] = assay: Antibacterial activity against Escherichia coli ATCC 25922 after 18 to 24 hrs by standard twofold serial dilution method; type: functional
Escherichia coli [3] = assay: Antibacterial activity against Escherichia coli 12-1 after 18 to 24 hrs by standard twofold serial dilution method; type: functional
Escherichia coli [4] = assay: Antibacterial activity against extended-spectrum beta-lactamase producing Escherichia coli 12-2 after 18 to 24 hrs by standard twofold serial dilution method; type: functional
Escherichia coli [5] = assay: Antibacterial activity against extended-spectrum beta-lactamase producing Escherichia coli 12-3 after 18 to 24 hrs by standard twofold serial dilution method; type: functional
Escherichia coli [6] = assay: Antibacterial activity against extended-spectrum beta-lactamase producing Escherichia coli 12-14 after 18 to 24 hrs by standard twofold serial dilution method; type: functional
Escherichia coli [7] = assay: Antibacterial activity against extended-spectrum beta-lactamase producing Escherichia coli 12-15 after 18 to 24 hrs by standard twofold serial dilution method; type: functional
Klebsiella pneumoniae [8] = assay: Antibacterial activity against Klebsiella pneumoniae 12-1 after 18 to 24 hrs by standard twofold serial dilution method; type: functional
Klebsiella pneumoniae [9] = assay: Antibacterial activity against Klebsiella pneumoniae 12-2 after 18 to 24 hrs by standard twofold serial dilution method; type: functional
Klebsiella pneumoniae [10] = assay: Antibacterial activity against Klebsiella pneumoniae 12-4 after 18 to 24 hrs by standard twofold serial dilution method; type: functional
Klebsiella pneumoniae [11] = assay: Antibacterial activity against extended-spectrum beta-lactamase producin Klebsiella pneumoniae 12-3 after 18 to 24 hrs by standard twofold serial dilution method; type: functional
Klebsiella pneumoniae [12] = assay: Antibacterial activity against extended-spectrum beta-lactamase producin Klebsiella pneumoniae 12-4 after 18 to 24 hrs by standard twofold serial dilution method; type: functional
Klebsiella pneumoniae [13] = assay: Antibacterial activity against extended-spectrum beta-lactamase producin Klebsiella pneumoniae 12-7 after 18 to 24 hrs by standard twofold serial dilution method; type: functional
Klebsiella pneumoniae [14] = assay: Antibacterial activity against extended-spectrum beta-lactamase producin Klebsiella pneumoniae 12-14 after 18 to 24 hrs by standard twofold serial dilution method; type: functional
Pseudomonas aeruginosa [15] = assay: Antibacterial activity against Pseudomonas aeruginosa 12-12 after 18 to 24 hrs by standard twofold serial dilution method; type: functional
Pseudomonas aeruginosa [16] = assay: Antibacterial activity against Pseudomonas aeruginosa 12-14 after 18 to 24 hrs by standard twofold serial dilution method; type: functional
Staphylococcus aureus [17] = assay: Antibacterial activity against Staphylococcus aureus ATCC 25923 after 18 to 24 hrs by standard twofold serial dilution method; type: functional
Staphylococcus aureus [18] = assay: Antibacterial activity against methicillin-sensitive Staphylococcus aureus 12-1 after 18 to 24 hrs by standard twofold serial dilution method; type: functional
Staphylococcus aureus [19] = assay: Antibacterial activity against methicillin-sensitive Staphylococcus aureus 12-2 after 18 to 24 hrs by standard twofold serial dilution method; type: functional
Staphylococcus aureus [20] = assay: Antibacterial activity against methicillin-sensitive Staphylococcus aureus 12-4 after 18 to 24 hrs by standard twofold serial dilution method; type: functional
Staphylococcus aureus [21] = assay: Antibacterial activity against methicillin-sensitive Staphylococcus aureus 12-5 after 18 to 24 hrs by standard twofold serial dilution method; type: functional
Staphylococcus aureus [22] = assay: Antibacterial activity against methicillin-resistant Staphylococcus aureus 12-2 after 18 to 24 hrs by standard twofold serial dilution method; type: functional
Staphylococcus aureus [23] = assay: Antibacterial activity against methicillin-resistant Staphylococcus aureus 12-4 after 18 to 24 hrs by standard twofold serial dilution method; type: functional
Staphylococcus aureus [24] = assay: Antibacterial activity against methicillin-resistant Staphylococcus aureus 12-5 after 18 to 24 hrs by standard twofold serial dilution method; type: functional
[25] = tested on: Staphylococcus epidermidis; assay: Antibacterial activity against methicillin-sensitive Staphylococcus epidermidis 12-1 after 18 to 24 hrs by standard twofold serial dilution method; type: functional
[26] = tested on: Staphylococcus epidermidis; assay: Antibacterial activity against methicillin-sensitive Staphylococcus epidermidis 12-3 after 18 to 24 hrs by standard twofold serial dilution method; type: functional
[27] = tested on: Staphylococcus epidermidis; assay: Antibacterial activity against methicillin-sensitive Staphylococcus epidermidis 12-6 after 18 to 24 hrs by standard twofold serial dilution method; type: functional
[28] = tested on: Staphylococcus epidermidis; assay: Antibacterial activity against methicillin-sensitive Staphylococcus epidermidis 12-8 after 18 to 24 hrs by standard twofold serial dilution method; type: functional
[29] = tested on: Staphylococcus epidermidis; assay: Antibacterial activity against methicillin-resistant Staphylococcus epidermidis 12-1 after 18 to 24 hrs by standard twofold serial dilution method; type: functional
[30] = tested on: Staphylococcus epidermidis; assay: Antibacterial activity against methicillin-resistant Staphylococcus epidermidis 12-6 after 18 to 24 hrs by standard twofold serial dilution method; type: functional
Streptococcus pneumoniae [31] = assay: Antibacterial activity against Streptococcus pneumoniae ATCC 49619 after 18 to 24 hrs by standard twofold serial dilution method; type: functional
Streptococcus pneumoniae [32] = assay: Antibacterial activity against Streptococcus pneumoniae 12-18 after 18 to 24 hrs by standard twofold serial dilution method; type: functional
Escherichia coli [33] = assay: Antibacterial activity against Escherichia coli 12-1 infected in mouse dosed orally twice at 0 and 6 hrs after infection; type: functional; conditions: 12-1, po
[34] = tested on: Staphylococcus epidermidis; assay: Antibacterial activity against methicillin-resistant Staphylococcus epidermidis 12-1 infected in mouse dosed orally twice at 0 and 6 hrs after infection; type: functional; conditions: 12-1, po
Staphylococcus aureus [35] = assay: Antibacterial activity against methicillin-resistant Staphylococcus aureus 12-5 infected in mouse dosed orally twice at 0 and 6 hrs after infection; type: functional; conditions: 12-5, po
Streptococcus pneumoniae [36] = assay: Antibacterial activity against Streptococcus pneumoniae 12-10 infected in mouse dosed orally twice at 0 and 6 hrs after infection; type: functional; conditions: 12-10, po
Klebsiella pneumoniae [37] = assay: Antibacterial activity against Klebsiella pneumoniae 12-1 infected in mouse dosed orally twice at 0 and 6 hrs after infection; type: functional; conditions: 12-1, po
Staphylococcus aureus [38] = assay: Antibacterial activity against methicillin-sensitive Staphylococcus aureus 12-1 infected in mouse dosed orally twice at 0 and 6 hrs after infection; type: functional; conditions: 12-1, po
[39] = Solubility of the compound; type: physicochemical

## CO/N=C1/CCN(c2c(F)cc3c(=O)c(C(=O)O)cn([C@@H]4C[C@@H]4F)c3c2OC)CC1N (stereo partly specified)
[1]
  MIC: 0.25 µg/mL (≈ 0.573 µM)
Escherichia coli [2]
  MIC: 0.06 µg/mL (≈ 0.137 µM)
Escherichia coli [3]
  MIC: 0.5 µg/mL (≈ 1.15 µM)
Escherichia coli [4]
  MIC: 32 µg/mL (≈ 73.3 µM)
Escherichia coli [5]
  MIC: 32 µg/mL (≈ 73.3 µM)
Escherichia coli [6]
  MIC: 16 µg/mL (≈ 36.7 µM)
Escherichia coli [7]
  MIC: 32 µg/mL (≈ 73.3 µM)
Klebsiella pneumoniae [8]
  MIC: 0.25 µg/mL (≈ 0.573 µM)
Klebsiella pneumoniae [9]
  MIC: 0.5 µg/mL (≈ 1.15 µM)
Klebsiella pneumoniae [10]
  MIC: 0.5 µg/mL (≈ 1.15 µM)
Klebsiella pneumoniae [11]
  MIC: 16 µg/mL (≈ 36.7 µM)
Klebsiella pneumoniae [12]
  MIC: 16 µg/mL (≈ 36.7 µM)
Klebsiella pneumoniae [13]
  MIC: 2 µg/mL (≈ 4.58 µM)
Klebsiella pneumoniae [14]
  MIC: 64 µg/mL (≈ 147 µM)
Pseudomonas aeruginosa [15]
  MIC: 4 µg/mL (≈ 9.17 µM)
Pseudomonas aeruginosa [16]
  MIC: 4 µg/mL (≈ 9.17 µM)
Staphylococcus aureus [17]
  MIC: 0.015 µg/mL (≈ 0.0344 µM)
Staphylococcus aureus [18]
  MIC: < 0.008 µg/mL
Staphylococcus aureus [19]
  MIC: < 0.008 µg/mL
Staphylococcus aureus [20]
  MIC: < 0.008 µg/mL
Staphylococcus aureus [21]
  MIC: < 0.008 µg/mL
Staphylococcus aureus [22]
  MIC: 2 µg/mL (≈ 4.58 µM)
Staphylococcus aureus [23]
  MIC: 2 µg/mL (≈ 4.58 µM)
Staphylococcus aureus [24]
  MIC: 2 µg/mL (≈ 4.58 µM)
[25]
  MIC: < 0.008 µg/mL
[26]
  MIC: < 0.008 µg/mL
[27]
  MIC: < 0.008 µg/mL
[28]
  MIC: 0.25 µg/mL (≈ 0.573 µM)
[29]
  MIC: 0.5 µg/mL (≈ 1.15 µM)
[30]
  MIC: 1 µg/mL (≈ 2.29 µM)
Streptococcus pneumoniae [31]
  MIC: 0.125 µg/mL (≈ 0.286 µM)
Streptococcus pneumoniae [32]
  MIC: 1 µg/mL (≈ 2.29 µM)
Escherichia coli [33]
  ED50: 12.1 mg/kg
[34]
  ED50: 25.4 mg/kg
Staphylococcus aureus [35]
  ED50: 26 mg/kg
Streptococcus pneumoniae [36]
  ED50: 25.3 mg/kg
Klebsiella pneumoniae [37]
  ED50: 21.1 mg/kg
Staphylococcus aureus [38]
  ED50: 11.4 mg/kg
[39]
  solubility: 3590 µg/mL (≈ 8230 µM)

## CCO/N=C1/CN(c2c(F)cc3c(=O)c(C(=O)O)cn([C@@H]4C[C@@H]4F)c3c2OC)CC1CN (stereo partly specified)
[1]
  MIC: 32 µg/mL (≈ 71 µM)
Escherichia coli [2]
  MIC: 4 µg/mL (≈ 8.88 µM)
Escherichia coli [3]
  MIC: 16 µg/mL (≈ 35.5 µM)
Escherichia coli [4]
  MIC: > 128 µg/mL
Escherichia coli [5]
  MIC: > 128 µg/mL
Escherichia coli [6]
  MIC: > 128 µg/mL
Escherichia coli [7]
  MIC: > 128 µg/mL
Klebsiella pneumoniae [8]
  MIC: 4 µg/mL (≈ 8.88 µM)
Klebsiella pneumoniae [9]
  MIC: 4 µg/mL (≈ 8.88 µM)
Klebsiella pneumoniae [10]
  MIC: 4 µg/mL (≈ 8.88 µM)
Klebsiella pneumoniae [11]
  MIC: > 128 µg/mL
Klebsiella pneumoniae [12]
  MIC: 128 µg/mL (≈ 284 µM)
Klebsiella pneumoniae [13]
  MIC: 32 µg/mL (≈ 71 µM)
Klebsiella pneumoniae [14]
  MIC: > 128 µg/mL
Pseudomonas aeruginosa [15]
  MIC: 8 µg/mL (≈ 17.8 µM)
Pseudomonas aeruginosa [16]
  MIC: 128 µg/mL (≈ 284 µM)
Staphylococcus aureus [17]
  MIC: 0.015 µg/mL (≈ 0.0333 µM)
Staphylococcus aureus [18]
  MIC: 0.25 µg/mL (≈ 0.555 µM)
Staphylococcus aureus [19]
  MIC: 0.25 µg/mL (≈ 0.555 µM)
Staphylococcus aureus [20]
  MIC: 0.25 µg/mL (≈ 0.555 µM)
Staphylococcus aureus [21]
  MIC: 0.25 µg/mL (≈ 0.555 µM)
Staphylococcus aureus [22]
  MIC: 128 µg/mL (≈ 284 µM)
Staphylococcus aureus [23]
  MIC: 128 µg/mL (≈ 284 µM)
Staphylococcus aureus [24]
  MIC: 64 µg/mL (≈ 142 µM)
[25]
  MIC: 0.25 µg/mL (≈ 0.555 µM)
[26]
  MIC: 2 µg/mL (≈ 4.44 µM)
[27]
  MIC: 0.25 µg/mL (≈ 0.555 µM)
[28]
  MIC: 16 µg/mL (≈ 35.5 µM)
[29]
  MIC: 32 µg/mL (≈ 71 µM)
[30]
  MIC: > 128 µg/mL
Streptococcus pneumoniae [31]
  MIC: 4 µg/mL (≈ 8.88 µM)
Streptococcus pneumoniae [32]
  MIC: 4 µg/mL (≈ 8.88 µM)
